The format of the data set is physicochemical. As to the method:
The temperature was adjusted to 90° C. The 2,4-DHBP concentration in the feed DIOPAT suspension of the diafiltration was about 0.32%. […] Thus, some 2,4-DHBP probably was already precipitated and had to be brought back into solution during the DF process. In the DF process, the DIOPAT suspension was held at 90° C. and was permanently washed with 12 kg fresh water. During the washing process, the DIOPAT concentration stayed constant. To separate the Al-salts and organic by-products, the DIOPAT suspension was pumped from the feed vessel to a ceramic membrane module and from there back to the feed vessel. In the ceramic membrane, the dissolved components (Al-salts and some org. components such as 2,4-DHBP) passed through the membrane. The DIOPAT particles stayed in the suspension and went back to the feed vessel. The permeate was send to the waste water treatment plant. In total, the suspension at the beginning of the membrane process (suspension after precipitation) was washed with a washing factor of 4.5. Then, the Al-salt concentration in the retentate was less than approx. 65 ppm.

As for `O=C(c1ccccc1)c1ccc(O)cc1O` [2,4-DHBP, 2,4-dihydroxybenzophenone], the “solubility in acidic water” value is “about 0.18%”.

Source of the values: patent US12304891B2, “Removal of Al-salts, HCl, NaCl and organic by-product from DIOPAT suspension by means of ceramic membranes in strong acidic conditions at high temperature” (BASF SE, priority 2018, dated 2025).
